Experimental data as given in US20020165119A1, “Method of treating inflammatory conditions by inhibiting cytosolic phospholipase A2” (priority 2001, published 2002).
Entries after “also recorded” stand apart in the source; their conditions may differ. Numbered stars: 1 amine (or outer) side, 2 acyl side, 3 side chain; on linkers, the order of the positions; unused ones are H or OH. Bridge positions count the residues as written; N and C are the ends. Square brackets hold non-standard residues; d marks the D form. Peptide text beside a SMILES is read from it. X1 = CC(C)CCCCCCCCC[C@H](CC(=O)[*:1])O[*:2]

Assays:
[1] = test system: OA-sensitized guinea pigs; assay: Bronchoalveolar lavage cell counts after antigen challenge; format: in vivo, guinea pig; conditions: for eosinophil count in BAL fluid: after ovalbumin challenge; for BAL eosinophils: 24 h after OA-challenge; for airway eosinophil influx after antigen challenge: guinea pig, in vivo
Experimental: Analysis of Bronchoalveolar Cells
(§1) After assessment of antigen-induced airway hyperresponsiveness or 24 h after IL-5 injection, airway inflammation was assessed. Immediately before and 1, 24, 48, and 72 h after antigen challenge, bronchoalveolar lavage (BAL) was performed to determine the time-course of cellular infiltration into airways. Two aliquots of 10 ml sterile 37° C. saline were infused into the tracheal cannula. The BAL fluid was recovered manually by gentle aspiration with a disposable syringe after each infusion. The total cell number was determined using a Turk solution. Differential cell counts were performed on cytospin preparations (Cytospin 2, Shandon, England) by counting 300 cells after staining by the May-Grüwald-Giemsa method in a single-blind method.

[2] = test system: OA-sensitized guinea pigs; assay: Antigen-induced bronchoconstriction: specific airway resistance (sRaw) after ovalbumin challenge; format: in vivo, guinea pig; conditions: for sRaw: drug alone; for increase in sRaw caused by OA challenge (immediate bronchoconstriction): pre-treatment i.p. 60 min before antigen challenge
Text: Male albino Hartley strain guinea pigs were obtained from Sankyou Laboratory Service (Toyama, Japan), and were quarantined in the Animal Research Center of Kanazawa University for 1 wk before study. All animal procedures in this study complied with the standards specified in the Guideline for the Care and Use of Laboratory Animals at the Takara-machi Campus of Kanazawa University.
(§2) Guinea pigs weighing 200 to 250 g were actively sensitized by a modification of the method reported by Andersson et al., Int. Arch. Allergy Appl. […] Guinea pigs were pretreated with an i.p. injection of 30 mg/kg of cyclophosphamide. Two days later, the animals were immunized with 2.0 mg of ovalbumin and 100 mg of aluminum hydroxide [Al(OH)3]. A booster injection of 10 μg of OA together with 100 mg of Al(OH)3 was given 3 wk after the primary immunization.
Animals were placed in a whole-body, double-chamber plethysmograph for measurement of specific airway resistance (sRaw) by a modification of the method described by Pennock et al., Appl. […] A respiratory mechanics analyzer (model PMUA+SAR, Buxco Electronics, Troy, N.Y.) was used to measure the phase shift between nasal and thoracic airflow and to compute sRaw on a breath by breath basis. A bias flow of air (20 ml/sec) was maintained through the nasal chamber to ensure a constant supply of fresh air to the animal. The analyzer subtracted this flow from its calculations. […] The nebulizer output was 0.14 ml/min. Baseline measurement of sRaw was obtained in all groups 5 min before antigen challenge.

[3] = test system: OA-sensitized guinea pigs; assay: Antigen-induced airway hyperresponsiveness to methacholine (PC200); format: in vivo, guinea pig; conditions: for antigen (ovalbumin)-induced methacholine airway hyperresponsiveness: 24 h after OA challenge; for baseline airway responsiveness to methacholine: drug alone
Experimental: as §2
Antigen-Induced Airway Hyperresponsiveness to Methacholine
Antigen-induced airway response to methacholine was measured 24 h after challenge. Guinea pigs were anaesthetized by an i.p. injection of 75 mg/kg of sodium pentobarbitone and were placed in a supine position. […] Exp. Path. […] After completion of all surgical procedures, the lungs were overinflated by two times tidal volume for two breaths by closing the outlet port of the respirator. This was done to standardize the volume history of the lungs. […] See Minami et al., Jpn.
Airway responsiveness to inhaled methacholine was expressed as the dose of methacholine required to provoke a 200% increase (PC200) in the Pao. Values for PC200 were logarithmically transformed for analysis and reported as the geometric mean [geometric SEM (GSEM)]. All measurements except for PC200 were expressed as mean±SEM. Variation between three or more groups was analyzed using analysis of variance (ANOVA) followed by Fisher's protected least significant difference. Variation between two groups was tested using Student's t test. A value of p<0.05 was accepted as an indication of statistical significance.

[4] = test system: guinea pigs; assay: IL-5-induced airway eosinophil accumulation (BAL); format: in vivo, guinea pig; conditions: for BAL eosinophils: 24 h after IL-5 treatment; for airway eosinophil influx after treatment with IL-5: guinea pig, in vivo
Experimental: IL-5-Induced Airway Eosinophil Accumulation
Guinea pigs weighing 350 to 400 g were treated i.p. before IL-5 injection with TFMK (20 mg/kg), E6123 (0.1 mg/kg), or vehicle (n=7 in each group). Animals were lightly anesthetized with diethyl ether inhalation, and then 200 μl sterile PBS containing 20 ng IL-5 was intranasally injected into the airway.
as §1

[5] = molecular target: T1, cPLA2 (Homo sapiens, UniProt P47712); conditions: Zhu et al., J. Immunol. 163:3423-3429, 1999; cited from earlier work
T1 sequence (P47712 1-749): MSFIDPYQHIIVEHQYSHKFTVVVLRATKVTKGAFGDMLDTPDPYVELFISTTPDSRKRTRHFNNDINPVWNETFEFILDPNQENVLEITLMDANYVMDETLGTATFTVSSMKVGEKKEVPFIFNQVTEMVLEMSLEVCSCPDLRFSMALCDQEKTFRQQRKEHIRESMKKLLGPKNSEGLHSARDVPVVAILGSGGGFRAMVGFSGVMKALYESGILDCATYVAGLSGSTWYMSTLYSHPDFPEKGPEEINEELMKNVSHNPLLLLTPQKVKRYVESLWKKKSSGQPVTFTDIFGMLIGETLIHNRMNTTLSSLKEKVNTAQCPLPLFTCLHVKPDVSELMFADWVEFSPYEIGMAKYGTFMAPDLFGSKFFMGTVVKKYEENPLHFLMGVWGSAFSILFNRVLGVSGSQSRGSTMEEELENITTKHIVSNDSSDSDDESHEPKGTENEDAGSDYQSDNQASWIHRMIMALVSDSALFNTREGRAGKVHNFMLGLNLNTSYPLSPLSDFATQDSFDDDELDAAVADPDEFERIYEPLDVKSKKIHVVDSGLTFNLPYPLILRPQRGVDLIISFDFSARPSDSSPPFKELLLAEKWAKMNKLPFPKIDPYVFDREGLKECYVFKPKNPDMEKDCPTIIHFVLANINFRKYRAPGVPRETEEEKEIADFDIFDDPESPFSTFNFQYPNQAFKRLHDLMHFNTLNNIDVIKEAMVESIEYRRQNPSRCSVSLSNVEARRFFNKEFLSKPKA

[6] = test system: bronchial airways; assay: Lung histology after ovalbumin challenge; format: in vivo, guinea pig; conditions: 2-20 mg/kg TFMK, 24 h
Text: After washing with sterile saline, the lung was fixed by perfusion with 10% formalin. Lung sections were stained with hematoxylin and eosin.

[7] = test system: TXB2 production from whole blood; assay: Effect of i.p. TFMK on TXB2 production ex vivo (FMLP/CB-stimulated whole blood); format: in vivo, guinea pig; conditions: FMLP 10^−6 M + 5 μg/ml cytochalasin B; after 20 mg/kg i.p. TFMK
Experimental: Effect of i.p. TFMK on TXB2 Production ex vivo
Sixty min after TFMK (20 mg/kg or vehicle i.p.; n=4 in each group), guinea pigs were anesthetized and heparinized blood (20 U/ml) was obtained via right carotid artery. Duplicate 1-ml aliquots of whole blood were incubated first with 5 μg/ml CB for 2 min and subsequently with 10^−6 M FMLP for 30 additional min at room temperature. Control samples from the same animals were incubated with buffer alone. Immediately after centrifugation, TXB2 was measured by enzyme immunoassay using reagents obtained from Cayman Chemical (Ann Arbor, Mich.).

Row | Compound | eosinophil count in BAL fluid [1] | BAL eosinophils [1] | airway eosinophil influx after antigen challenge [1] | sRaw [2] | increase in sRaw caused by OA challenge (immediate bronchoconstriction) [2] | antigen (ovalbumin)-induced methacholine airway hyperresponsiveness [3] | baseline airway responsiveness to methacholine [3] | BAL eosinophils [4] | airway eosinophil influx after treatment with IL-5 [4] | other results
1 | CC1=C(C)C(=O)C(CCCCC#CCCCC#CCO)=C(C)C1=O [AA-861] | no effect | – | – | – | – | – | – | – | – | –
2 | Cc1nnc2n1-c1sc3c(c1C(c1ccccc1Cl)=N[C@H]2C)CCN(C(=O)C1CC1)C3 [E6123] | – | 1.6±0.6 ×10^5/ml | dose-dependently blocked | neither drug alone had any effect | not attenuated | complete blockade | not altered; also recorded: neither drug alone had any effect | 0.4±0.1 ×10^5/ml | dose-dependently blocked | BAL total cell number ([4]; after IL-5 treatment): 3.3±0.4 ×10^5/ml
3 | CC(C)CCCCCCCCC[C@@H]1CC(=O)N[C@@H](CCC(=O)O)C(=O)N[C@@H](CC(C)C)C(=O)N[C@H](CC(C)C)C(=O)N[C@@H](C(C)C)C(=O)N[C@@H](CC(=O)O)C(=O)N[C@H](CC(C)C)C(=O)N[C@@H](CC(C)C)C(=O)O1 [Surfactin] (EL[dL]VD[dL]L; linker N-C via X1) | – | – | – | – | – | – | – | – | – | activity of cPLA2 [5]: inhibit or reduce the activity
4 | CCCCC/C=C\C/C=C\C/C=C\C/C=C\CCCC(=O)C(F)(F)F [TFMK, arachidonic trifluoromethyl ketone] | – | 2.1±0.7 ×10^5/ml | dose-dependently blocked | neither drug alone had any effect | not attenuated | – | not altered; also recorded: neither drug alone had any effect | 0.7±0.2 ×10^5/ml | dose-dependently blocked | inflammatory cell infiltration in epithelial layer and lamina propria (histology) [6]: blocked cell infiltration progressively; increase in stimulated TXB2 production from whole blood [7]: 13.5±10.5%; PC200 (provocative concentration of methacholine causing a 200% increase in Pao) ([3]; antigen challenged animals pretreated with 20 mg/kg TFMK, 24 h after challenge, geometric mean (GSEM)): 218 ± 0.08 µg/mL
5 | CC(C)(C)c1ccc(C(=O)CCCN2CCC(OC(c3ccccc3)c3ccccc3)CC2)cc1 [ebastine] | – | – | – | – | significantly attenuated | had no effect | – | – | – | –
6 | COc1ccc2c(c1)c(CC(=O)O)c(C)n2C(=O)c1ccc(Cl)cc1 [indomethacin] | no effect | – | – | – | not attenuated | neither indomethacin, a COX inhibitor, nor AA861, a 5-LO inhibitor, blocked | – | – | – | –
